# Data as given in patent publication US6410515B1, “Peptide, a method for its preparation and a pharmaceutical composition containing the peptide” (Immunotech Developments Inc., priority 1995, dated 2002).
# Experiments:
# [1] = test system: mixed lymphocyte culture (MLC); experiment: Mixed lymphocyte culture (MLC) proliferation; assay type: cell-based, mice
# Procedure: The influence of the peptides of the invention on the proliferation of a mixed lymphocyte culture (MLC) was studied. The MLC experimental system is an in vitro analogue of the GVHD reaction.
# Donor spleen cells from C57B1 mice ([…]) were injected into recipient (CBA×C57B1) F1 mice. Bone marrow was removed from the recipient and cultured for 4 days. The cultured cells were separated into 3 test groups, one group was treated with iDD, one with the L-peptide H-Ile-Glu-Trp-OH and one was a control. Each test peptide was added in various concentrations. Each determination was done in triplicate. ^3H-thymidine was added to each culture for 16 hours and the index of the proliferation of the cells was calculated.
# [2] = Solubility of the peptide; assay type: physicochemical
# Excerpt: The resulting peptide has the following physical and chemical properties and characteristics: […]
# [3] = test system: Splenic cells of the mice; experiment: Concavalin A-stimulated proliferation of splenic cells (3H-thymidine); assay type: cell-based, Balb/c mice; details: 48 h, control 61467
# Procedure: The biological effect of the D-iGlu-D-Trp (iDD) was studied in Balb/c mice. […] The preparation under study was added at the beginning of the culture. Concavalin A was used as a mitogen, in a final concentration of 2 μg per well. The plates were incubated at 37° C. and in 5% CO2 for 48 h. 3H-thymidine was incorporated into the cells in the amount of […], 24 h prior to the end of the culture. Proliferation of the cells was measured with the use of a scintillation c-counter and expressed in counts per minute (CPM).
# [4] = test system: Intact bone marrow cells (hemopoietic stem cells); experiment: Spleen colony formation after in vitro treatment of intact bone marrow cells; assay type: cell-based, mice; details: for Colony count: Table 4, control 9,0 ± 0,6
# Procedure: The effect of peptides of the present invention on a population of hemopoietic progenitors was studied by testing for colony formation by hemopoietic stem cells in spleens of irradiated mice.
# Intact bone marrow cells were incubated at 37° C. for 1 hour with different concentrations of the peptide ranging from […]/ml. The suspension was injected to lethally irradiated recipient mice. After 8 days the animals were killed and spleen colonies were counted.
# The treatment was carried out as described above in Example 4(a).
# [5] = test system: hemopoietic progenitor cells (CFU-S); experiment: CFU-S content in bone marrow of mice irradiated with 4 Gy; assay type: in vivo; details: day 8, control 401 ± 48
# Procedure: The effect of H-A-D-Trp-Y, where A is D-Glu or D-iGlu and Y is OH or a substituted amide, on protection and reconstitution of the population of hemopoietic progenitor cells in cytopenias of different origin was studied.
# Ionising radiation was used to deplete bone marrow. Donor mice were irradiated at a dose of 4 Gy. For each of the two peptides, 10 μg/kg was injected intraperitoneally 1 hour, 1 day or 2 days before the irradiation (groups of 12 mice each). Bone marrow was taken from femoral bones 8 days after the irradiation. Eight days generally marks the beginning of an exponential reconstitution of both the total number of cells and the population of hemopoietic progenitors in the bone marrow, which were depleted as a result of irradiation.
# On the 8th day a sharp statistically significant increase was recorded in the hemopoietic progenitor cells count in the bone marrow of the mice irradiated in the dose of 4 Gy who had received the peptide 2 days before the irradiation.
# [6] = test system: (CBA×C57 B1) F1 mice; experiment: Chronic lymphocyte-induced GVHR in irradiated (6 Gy) mice; assay type: in vivo; details: for Survival (%) / Survival (mice): after 60 days; for Survival (%): control 60; for Survival (mice): of 10 mice, control 6
# Procedure: Recipient (CBA×C57 B1) F1 mice were irradiated with the dose of 6 Gy. Two hours after irradiation they were intravenously injected with 6 mln lymphocytes from mesenteric lymph nodes of C57B1 donor mice. […] The peptide was injected intraperitoneally once daily, 5 days a week, until day 21, for a total of 14 injections.
# Indicators of the degree of GVHR development were animal weight and lymphocyte and leukocyte count. The animals were weighed every 3 days. On day 14 and day 28 lymphocyte and leukocyte count were determined using peripheral blood.
# [7] = test system: patients with cytopenias of immune origin; experiment: Clinical study: tolerability; assay type: in vivo
# Procedure: The peptide iDD was given to patients with cytopenias of immune origin and its effect on hemopoietic status was assessed using a number of immunological tests characterising both humoral and cellular immunity.
# The iDD was administered 0.1 mg in a 1 ml dose intranasally (once or twice in divided doses) for 5 days. The regime was repeated after a two week interval. For patients receiving steroids and cytostatics, iDD was administered during the therapy or before the cytostatic treatment.
substance,measurement,setting,value
H-D-iGlu-D-Trp-OH [iDD],Effect on MLC when H-Ile-Glu-Trp-OH and iDD added in equal concentrations,[1]; both peptides in equal concentrations,the effect of iDD was predominant
same,Depression of the proliferation MLC,"[1]; concentrations of 10 and 20 μg/ml, FIG. 1",~50%
same,Solubility in alcohol,[2]; alcohol,moderately soluble
same,Solubility in chloroform,[2]; chloroform,insoluble
same,Solubility in water,[2]; water,readily soluble
same,"CPMI (proliferation, 3H-thymidine)",[3]; Preparation dose 1 μcg/ml,68594 CPM
same,"CPMI (proliferation, 3H-thymidine)",[3]; Preparation dose 5 μcg/ml,63428 CPM
same,"CPMI (proliferation, 3H-thymidine)",[3]; Preparation dose 10 μcg/ml,20043 CPM
same,"CPMI (proliferation, 3H-thymidine)",[3]; Preparation dose 20 μcg/ml,13222 CPM
same,Decrease of number of spleen colonies,"[4]; Table 4, in the presence of the peptide",more than 50%
same,Colony count,"[4]; peptide dose 0,1 μg/ml, no thymocytes","4,4 ± 0,5"
same,Colony count,"[4]; peptide dose 0,02 μg/ml, no thymocytes","3,6 ± 0,5"
same,Colony count,"[4]; peptide dose 1,0 μg/ml, no thymocytes","4,3 ± 0,3"
same,Colony count,"[4]; peptide dose 10,0 μg/ml, no thymocytes","4,3 ± 0,1"
same,Colony count,"[4]; peptide dose 10,0 μg/ml, with thymocytes 2 × 10^7 cells","8,7 ± 0,4"
same,Colony count,"[4]; peptide dose 20,0 μg/ml, no thymocytes","3,9 ± 0,4"
same,CFU-S count per femur,[5]; 10 μg/kg IP 1 hour before 4 Gy,394 ± 57
same,CFU-S count per femur,[5]; 10 μg/kg IP 1 day before 4 Gy,324 ± 63
same,CFU-S count per femur,[5]; 10 μg/kg IP 2 days before 4 Gy,677 ± 49
same,Animal Weight,"[6]; Dose 10 μ/kg, Day 5, initial average 18.3 g",18.0 grams
same,Animal Weight,"[6]; Dose 10 μ/kg, Day 8",18.3 grams
same,Animal Weight,"[6]; Dose 10 μ/kg, Day 12",18.3 grams
same,Animal Weight,"[6]; Dose 10 μ/kg, Day 14",17.8 grams
same,Animal Weight,"[6]; Dose 10 μ/kg, Day 19",17.6 grams
same,Animal Weight,"[6]; Dose 10 μ/kg, Day 21",17.8 grams
same,Animal Weight,"[6]; Dose 10 μ/kg, Day 23",18.6 grams
same,Animal Weight,"[6]; Dose 10 μ/kg, Day 26",18.9 grams
same,Animal Weight,"[6]; Dose 10 μ/kg, Day 30",18.9 grams
same,Animal Weight,"[6]; Dose 10 μ/kg, Day 33",18.9 grams
same,Animal Weight,"[6]; Dose 10 μ/kg, Day 40",19.2 grams
same,Animal Weight,"[6]; Dose 10 μ/kg, Day 47",19.9 grams
same,Animal Weight,"[6]; Dose 10 μ/kg, Day 54",20.0 grams
same,Animal Weight,"[6]; Dose 10 μ/kg, Day 60",20.0 grams
same,Animal Weight,"[6]; Dose 100 μ/kg, Day 5, initial average 18.3 g",18.6 grams
same,Animal Weight,"[6]; Dose 100 μ/kg, Day 8",18.5 grams
same,Animal Weight,"[6]; Dose 100 μ/kg, Day 12",18.6 grams
same,Animal Weight,"[6]; Dose 100 μ/kg, Day 14",19.0 grams
same,Animal Weight,"[6]; Dose 100 μ/kg, Day 19",19.0 grams
same,Animal Weight,"[6]; Dose 100 μ/kg, Day 21",19.3 grams
same,Animal Weight,"[6]; Dose 100 μ/kg, Day 23",19.6 grams
same,Animal Weight,"[6]; Dose 100 μ/kg, Day 26",19.6 grams
same,Animal Weight,"[6]; Dose 100 μ/kg, Day 30",19.7 grams
same,Animal Weight,"[6]; Dose 100 μ/kg, Day 33",19.7 grams
same,Animal Weight,"[6]; Dose 100 μ/kg, Day 40",20.0 grams
same,Animal Weight,"[6]; Dose 100 μ/kg, Day 47",20.3 grams
same,Animal Weight,"[6]; Dose 100 μ/kg, Day 54",20.4 grams
same,Animal Weight,"[6]; Dose 100 μ/kg, Day 60",20.4 grams
same,Animal Weight,"[6]; Dose 1000 μ/kg, Day 5, initial average 18.3 g",19.1 grams
same,Animal Weight,"[6]; Dose 1000 μ/kg, Day 8",19.1 grams
same,Animal Weight,"[6]; Dose 1000 μ/kg, Day 12",18.9 grams
same,Animal Weight,"[6]; Dose 1000 μ/kg, Day 14",18.9 grams
same,Animal Weight,"[6]; Dose 1000 μ/kg, Day 19",19.4 grams
same,Animal Weight,"[6]; Dose 1000 μ/kg, Day 21",19.6 grams
same,Animal Weight,"[6]; Dose 1000 μ/kg, Day 23",19.8 grams
same,Animal Weight,"[6]; Dose 1000 μ/kg, Day 26",19.8 grams
same,Animal Weight,"[6]; Dose 1000 μ/kg, Day 30",20.0 grams
same,Animal Weight,"[6]; Dose 1000 μ/kg, Day 33",20.0 grams
same,Animal Weight,"[6]; Dose 1000 μ/kg, Day 40",20.2 grams
same,Animal Weight,"[6]; Dose 1000 μ/kg, Day 47",20.5 grams
same,Animal Weight,"[6]; Dose 1000 μ/kg, Day 54",20.1 grams
same,Animal Weight,"[6]; Dose 1000 μ/kg, Day 60",20.4 grams
same,Survival (%),[6]; Dose 10 μ/kg,90%
same,Survival (mice),[6]; Dose 10 μ/kg,9
same,Survival (%),[6]; Dose 100 μ/kg,90%
same,Survival (mice),[6]; Dose 100 μ/kg,9
same,Survival (%),[6]; Dose 1000 μ/kg,80%
same,Survival (mice),[6]; Dose 1000 μ/kg,8
same,Lymphocyte and leukocyte counts versus control mice,"[6]; peripheral blood, day 14 and day 28, Table 20 not given",significantly higher
same,Dynamics of biochemical indices,[7]; before and after 1-3 treatment courses,no changes
same,Somatic status (physical examinations),[7]; before and after the treatment,no changes
same,Changes in AP dynamics and ECG,[7]; iDD courses,not observed
same,Toxic and adverse reactions,"[7]; prolonged administration (5-6 courses), 0.1 mg intranasally for 5 days",no toxic reactions
